Among the data in patent publication US20220324865A1 (Bayer Aktiengesellschaft, priority 2018, published 2022) are IC50 values, retold here.

In this assay the target is T1, human EP3 receptor (Homo sapiens, UniProt P43115).
T1 construct: expressed in transfected cells; host or cells: CHO K1 (Chinese Hamster Ovary), stably co-transfected with Galpha16 and mitochondrial clytin
T1 sequence (P43115 1-390): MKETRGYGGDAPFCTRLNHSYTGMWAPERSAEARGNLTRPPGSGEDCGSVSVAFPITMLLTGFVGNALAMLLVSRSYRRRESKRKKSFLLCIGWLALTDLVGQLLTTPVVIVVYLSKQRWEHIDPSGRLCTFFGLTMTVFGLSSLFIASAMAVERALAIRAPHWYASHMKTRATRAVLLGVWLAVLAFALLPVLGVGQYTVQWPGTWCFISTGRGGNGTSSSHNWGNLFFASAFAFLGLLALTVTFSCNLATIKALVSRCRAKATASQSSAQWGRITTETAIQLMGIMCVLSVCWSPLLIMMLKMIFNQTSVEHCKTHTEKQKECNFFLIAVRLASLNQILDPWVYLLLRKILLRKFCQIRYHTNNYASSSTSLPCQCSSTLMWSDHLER
The assay can be described thus: Cellular in vitro assay for determining EP3 receptor activity (human EP3 cell line, sulprostone-stimulated calcium luminescence). Type of assay: cell-based. As to conditions: CHO cells expressing human EP3 and mitochondrial Clytin; antagonist mode, sulprostone at EC50; read-out: EP3 CHO mtCLY ANTAG IC50. In a few lines: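 CHO K1 cells stably expressing human EP3 with Gα16 and mitochondrial Clytin, loaded overnight with coelenterazine. Compounds added 10 min before sulprostone at its EC50; antagonism read immediately as reduced calcium-driven luminescence, quadruplicate points.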
Take `Cc1cccc2ncc(-c3cn4nc(C(=O)NC5CCc6ccccc65)c(C(C)C)c4c(=O)[nH]3)cc12` (stereo not shown) [Example 4-72, N-(2,3-Dihydro-1H-inden-1-yl)-3-isopropyl-6-(5-methylquinolin-3-yl)-4-oxo-4,5-dihydropyrazolo[1,5-a]pyrazine-2-carboxamide]: the IC50 stood at 6.05 nM. With `Cc1nn(C(CNC(=O)c2cc3c(=O)[nH]c(-c4ccc5ccccc5c4)cn3n2)C(C)C)c(C)c1Cl` (stereo not shown) [Example 2-20, N-[2-(4-Chloro-3,5-dimethyl-1H-pyrazol-1-yl)-3-methylbutyl]-6-(2-naphthyl)-4-oxo-4,5-dihydropyrazolo[1,5-a]pyrazine-2-carboxamide], the IC50 came to 9.75 nM. Consider `Cc1ccc(-c2cn3nc(C(=O)N[C@@H](c4ccc(F)cc4)C(C)(C)O)c(C)c3c(=O)[nH]2)c(F)c1C` [Example 1-164, 6-(2-Fluoro-3,4-dimethylphenyl)-N-[(15)-1-(4-fluorophenyl)-2-hydroxy-2-methylpropyl]-3-methyl-4-oxo-4,5-dihydropyrazolo[1,5-a]pyrazine-2-carboxamide], for which the IC50 is 2.9 nM. The figure for `O=C(N[C@@H](c1ccc(F)cc1)C(F)(F)CO)c1nn2cc(-c3ccc(Cl)c(F)c3)[nH]c(=O)c2c1C(F)F` [6-631] is 8.55 nM; for `CC(NC(=O)c1cc2c(=O)[nH]c(-c3ccc4ccccc4c3)cn2n1)c1ccccc1` (stereo not shown) [Example 2-1, 6-(2-Naphthyl)-4-oxo-N-(1-phenylethyl)-5H-pyrazolo[1,5-a]pyrazine-2-carboxamide] it is 2.07 nM.

As for `CC(NC(=O)c1nn2cc(-c3ccc4ccccc4c3)[nH]c(=O)c2c1C#N)c1ccc(Cl)c(Cl)c1` (stereo not shown) [Example 3-54, 3-Cyano-N-[1-(3,4-dichlorophenyl)ethyl]-6-(2-naphthyl)-4-oxo-5H-pyrazolo[1,5-a]pyrazine-2-carboxamide], the IC50 is 6.95 nM. To `COc1ccc([C@@H](C)NC(=O)c2nn3cc(-c4ccc5ccccc5c4)[nH]c(=O)c3c2C(F)(F)F)cn1` [Example 1-79, N-[(1R)-1-(6-Methoxpyridin-3-yl)ethyl]-6-(naphthalen-2-yl)-4-oxo-3-(trifluoromethyl)-4,5-dihydro-pyrazolo[1,5-a]pyrazine-2-carboxamide] belongs 0.6 nM; to `COc1ccc([C@@H](C)NC(=O)c2cc3c(=O)[nH]c(-c4ccc5c(c4F)OCCO5)c(F)n3n2)cn1` [Example 1-111, 7-Fluoro-6-(5-fluoro-2,3-dihydro-1,4-benzodioxin-6-yl)-N-[(1R)-1-(6-methoxypyridin-3-yl)ethyl]-4-oxo-4,5-dihydropyrazolo[1,5-a]pyrazine-2-carboxamide], 8.8 nM; to `COc1ccc(C(CCO)NC(=O)c2cc3c(=O)[nH]c(-c4ccc(C)c(C)c4)cn3n2)cc1` (racemic) [Example 1-11, rac-6-(3,4-Dimethylphenyl)-N-[3-hydroxy-1-(4-methoxyphenyl)propyl]-4-oxo-5H-pyrazolo[1,5-a]-pyrazine-2-carboxamide], 2.15 nM.

As to `Cc1cc(-c2cn3nc(C(=O)N[C@H](CN4CCC(F)(F)C4)c4ccc(F)cc4)c(C4CC4)c3c(=O)[nH]2)ccc1Cl` [6-339], the IC50 came to 7.15 nM. To `Cc1ccc(-c2[nH]c(=O)c3c(C(F)(F)F)c(C(=O)NCCn4ccc(C5CC5)n4)nn3c2C)cc1C` [Example 1-130, N-[2-(3-Cyclopropyl-1H-pyrazol-1-yl)ethyl]-6-(3,4-dimethylphenyl)-7-methyl-4-oxo-3-(trifluoromethyl)-4,5-dihydropyrazolo[1,5-a]pyrazine-2-carboxamide] belongs 2.55 nM; to `Cc1c(C(=O)NC(CO)c2ccc(Br)cc2)nn2c(C)c(-c3ccc4ccccc4c3)[nH]c(=O)c12` (stereo not shown) [Example 3-69, N-[1-(4-Bromophenyl)-2-hydroxyethyl]-3,7-dimethyl-6-(2-naphthyl)-4-oxo-5H-pyrazolo[1,5-a]pyrazine-2-carboxamide], 2.5 nM.

For `Cc1ccc(-c2cn3nc(C(=O)NCC(O)C(F)(F)F)c(C(F)(F)F)c3c(=O)[nH]2)cc1Cl` (single isomer, unassigned) [6-159], the IC50 came out at 2.3 nM. The figure for `Cc1c(C(=O)NCCn2ccc(C3CC3)n2)nn2c(C)c(-c3ccc4ccccc4c3)[nH]c(=O)c12` [Example 3-1, N-[2-(3-Cyclopropyl-1H-pyrazol-1-yl)ethyl]-3,7-dimethyl-6-(naphthalen-2-yl)-4-oxo-4,5-dihydropyrazolo[1,5-a]pyrazine-2-carboxamide] is 0.79 nM. Take `Cc1ccc(-c2cn3nc(C(=O)N[C@@H](c4ccc(F)cc4)C(F)(F)CO)c(C(F)(F)C(F)(F)F)c3c(=O)[nH]2)cc1F` [6-491]: the IC50 was 0.58 nM. As to `Cc1ccc(-c2cn3nc(C(=O)NC4(C)CCC4)c(C(F)(F)F)c3c(=O)[nH]2)cc1F` [6-146], the IC50 was found to be 10 nM. On to `COc1ccc(C(C)NC(=O)c2nn3c(C)c(-c4ccc5ccccc5c4)[nH]c(=O)c3c2C)cc1` (stereo not shown) [Example 3-57, N-[1-(4-Methoxyphenyl)ethyl]-3,7-dimethyl-6-(2-naphthyl)-4-oxo-5H-pyrazolo[1,5-a]pyrazine-2-carboxamide], for which the IC50 was 2.95 nM. In the case of `CC[C@@H](C)NC(=O)c1nn2cc(-c3ccc(C)c(C)c3)[nH]c(=O)c2c1C(F)(F)F` [6-113], the IC50 was 3.4 nM. On to `Cc1ccc(-c2cn3nc(C(=O)N[C@@H](C)C4CC4)c(C4CC4(F)F)c3c(=O)[nH]2)cc1Cl` (stereo partly shown) [6-561], for which the IC50 is 1.1 nM.

Take `COC[C@H](NC(=O)c1cc2c(=O)[nH]c(-c3ccc4ccccc4c3)cn2n1)c1ccccc1` [Example 1-2, N-[(1R)-2-Methoxy-1-phenylethyl]-6-(naphthalen-2-yl)-4-oxo-4,5-dihydropyrazolo[1,5-a]pyrazine-2-carboxamide]: the IC50 came to 2.5 nM. The figure for `Cc1cc(-c2cn3nc(C(=O)NCCC(O)C(F)(F)F)c(C4CC4)c3c(=O)[nH]2)ccc1Cl` (racemic) [6-309] is 1.13 nM; for `Cc1ccc(-c2cn3nc(C(=O)NCC(O)C(F)(F)F)c(C4CC4)c3c(=O)[nH]2)cc1Cl` (racemic) [6-258] it is 0.82 nM; for `Cc1cccc2ncc(-c3cn4nc(C(=O)N[C@@H]5CCCc6ccccc65)c(C(C)C)c4c(=O)[nH]3)cc12` [Example 4-5, 6-(5-Methylquinolin-3-yl)-4-oxo-3-(propan-2-yl)-N-[(7R)-1,2,3,4-tetrahydronaphthalen-1-yl]-4,5-dihydropyrazolo[1,5-a]pyrazine-2-carboxamide] it is 7.7 nM. In the case of `Cc1ccc(-c2cn3nc(C(=O)N[C@@H](CCO)c4ccc(F)cc4)c(C#N)c3c(=O)[nH]2)cc1C` [Example 1-75, 3-Cyano-6-(3,4-dimethylphenyl)-N-[(1S)-1-(4-fluorophenyl)-3-hydroxpropyl]-4-oxo-4,5-dihydropyrazolo[1,5-a]pyrazine-2-carboxamide], the IC50 was determined as 8.75 nM.

On to `Cc1ccc(-c2cn3nc(C(=O)N[C@H]4c5ccccc5C[C@H]4O)c(C(F)(F)F)c3c(=O)[nH]2)cc1Cl` [6-185], for which the IC50 is 2.35 nM. As for `C[C@@H](NC(=O)c1cc2c(=O)[nH]c(-c3cnc4ccccc4c3)cn2n1)c1ccc(F)cc1` [6-62], the 50% inhibitory concentration (IC50) came to 3.13 nM. Take `Cc1c(C(=O)NC(C)c2cccnc2)nn2c(C)c(-c3ccc4ccccc4c3)[nH]c(=O)c12` (stereo not shown) [Example 3-73, 3,7-Dimethyl-6-(2-naphthyl)-4-oxo-N-[1-(3-pyridyl)ethyl]-5H-pyrazolo[1,5-a]pyrazine-2-carboxamide]: the IC50 came to 2.7 nM.

For `Cc1ccc(-c2cn3nc(C(=O)N[C@@H](c4ccc(F)cc4)C(F)(F)CO)c(C(F)(F)F)c3c(=O)[nH]2)cc1F` [6-141], the IC50 was 2.23 nM. As to `CC(C)c1c(C(=O)N[C@@H](c2ccc(F)cc2)C(F)(F)CO)nn2cc(-c3ccc(Cl)c(F)c3)[nH]c(=O)c12` [6-536], the IC50 amounted to 3.8 nM. `CC(NC(=O)c1nn2cc(-c3ccc4ccccc4c3)[nH]c(=O)c2c1C#N)c1ccccc1OC(F)F` (stereo not shown) [Example 3-60, 3-Cyano-N-[1-[2-(difluoromethoxy)phenyl]ethyl]-6-(2-naphthyl)-4-oxo-5H-pyrazolo[1,5-a]pyrazine-2-carboxamide]: the IC50 came out at 1.85 nM. To `CCN(CCO)CC(NC(=O)c1cc2c(=O)[nH]c(-c3ccc(C)c(C)c3)cn2n1)c1ccccc1` (stereo not shown) [Example 1-85, 6-(3,4-Dimethylphenyl)-N-[2-[ethyl(2-hydroxyethyl)amino]-1-phenylethyl]-4-oxo-5H-pyrazolo-[1,5-a]pyrazine-2-carboxamide] belongs 3 nM; to `Cc1ccc(-c2cn3nc(C(=O)N[C@H](CCO)c4ccc(F)cc4)c(C(C)C)c3c(=O)[nH]2)cc1C` [Example 1-92, 6-(3,4-Dimethylphenyl)-N-[(1R)-1-(4-fluorophenyl)-3-hydroxpropyl]-4-oxo-3-(propan-2-yl)-4,5-dihydropyrazolo[1,5-a]pyrazine-2-carboxamide], 0.625 nM; to `Cc1ccc(-c2cn3nc(C(=O)NC4(c5ccc(F)cc5)COC4)cc3c(=O)[nH]2)cc1C` [6-55], 1.53 nM. As for `O=C(NC(CO)c1ccc2c(c1)OCO2)c1cc2c(=O)[nH]c(-c3ccc4ccccc4c3)cn2n1` (stereo not shown) [Example 2-28, N-[1-(1,3-Benzodioxol-5-yl)-2-hydroxyethyl]-6-(2-naphthyl)-4-oxo-4,5-dihydropyrazolo[1,5-a]pyrazine-2-carboxamide], the IC50 was found to be 0.93 nM.
